Results taken from paper PMC10945555, “Improving Activity of New Arylurea Agents against Multidrug-Resistant and Biofilm-Producing Staphylococcus epidermidis” (ACS Medicinal Chemistry Letters, 2024).

Tests used:
Type in all cases: cell-based
[1] = system: Staphylococcus epidermidis ATCC 12228; test: MIC, broth microdilution, MSSE reference strain; conditions: ATCC12228, Staphylococcus epidermidis ATCC 12228, read-out: MIC MSSE
Description: These strains included susceptible, multidrug-resistant, and biofilm-producing strains of S. epidermidis and S. aureus (MSSE, MDR/BPSE, and MDR/BPSA, respectively). The cornerstone antibiotic linezolid served as a positive control (Table 1). The impact of structural modifications at the aryloxy fragment and the aromatic moiety bound to the propyl linker on the inhibitory activity was initially investigated. […] Further optimization focused on evaluating the impact of the type of substituent and its position on the arylsulfonamide fragment’s activity.
2 Biological assay protocols
Microbiological tests were carried out under aseptic conditions in a laminar chamber of the 2nd […]
(BioTectum 1.2, Alchem Poland). The assessment of antimicrobial activity was carried out for final compounds in the form of free bases, soluble in DMSO (Merck, Germany), at the initial […]
concentration of 1 mg/mL. […]
were provided by Cayman Chemical, USA.
The activity of all newly synthesized compounds was tested in vitro on a panel of selected reference strains from the American Type Culture Collection (ATCC) of Gram-positive […]
2.2 Effect of evaluated compounds on planktonic cells
The susceptibility of three reference bacterial strains (Staphylococcus epidermidis ATCC […]
Table S1) and 81 clinical MDR S. epidermidis (Table S2) to the tested compounds was assessed by determining the MIC value (Minimal Inhibitory Concentration) by microdilution in a liquid medium in 96-well flat-bottom cell culture plates (Nest Biotechnology Scientific, USA). The antibacterial properties of the compo unds were tested in the concentration range from 50 µg/mL to 0.1 µg/mL by making a series of double dilutions of the compound in liquid Mueller -Hinton II Broth Cation Adjusted (MHB II, BBL TM, USA) according to the European Committee on […]
Antimicrobial Susceptibility Testing guidelines (EUCAST).2,3 The determinations were performed twice. The MIC50 and MIC90 values were determined for each of the tested

[2] = system: biofilm-producing Staphylococcus epidermidis strains; test: Inhibition of biofilm formation (MBIC, resazurin)
Procedure: After 24 hours incubation each well of
concentration of 4 mg/mL was added. […]

[3] = system: biofilm-producing Staphylococcus epidermidis strains; test: Biofilm eradication (MBEC Assay Kit)
[4] = S. epidermidis ATCC 35984 (Table S4)

O=S(=O)(NC1CCN(CCC(Oc2ccc(C(F)(F)F)cc2)c2cccs2)CC1)c1cccc(C(F)(F)F)c1 (stereo not shown) [Compound 21]
MIC [1]: ≤ 6.25 µg/mL

O=C(Nc1cccc(Cl)c1)NC1CCN(CCC(Oc2ccc(C(F)(F)F)cc2)c2cccs2)CC1 (stereo not shown) [Compound 25]
MBIC [2, 4]: 7.8 µg/mL | MBIC50 ([2]; Table S4 strains): 15.6 µg/mL | MBIC90 ([2]; Table S4 strains): 31.25 µg/mL | MBIC ([2]; clinical strain 1 (Table S4)): 15.6 µg/mL | MBIC ([2]; clinical strain 2 (Table S4)): 31.25 µg/mL | MBIC ([2]; clinical strain 3 (Table S4)): 31.25 µg/mL | MBIC ([2]; clinical strain 4 (Table S4)): 31.25 µg/mL | MBIC ([2]; clinical strain 5 (Table S4)): 15.6 µg/mL | MBIC ([2]; clinical strain 6 (Table S4)): 15.6 µg/mL | MBIC ([2]; clinical strain 8 (Table S4)): 3.9 µg/mL | MBIC ([2]; clinical strain 9 (Table S4)): 31.25 µg/mL | MBIC ([2]; clinical strain 11 (Table S4)): 31.25 µg/mL | MBIC ([2]; clinical strain 12 (Table S4)): 31.25 µg/mL | MBIC ([2]; clinical strain 13 (Table S4)): 1.6 µg/mL | MBIC ([2]; clinical strain 15 (Table S4)): 31.25 µg/mL | MBIC ([2]; clinical strain 16 (Table S4)): 15.6 µg/mL | MBIC ([2]; clinical strain 17 (Table S4)): 15.6 µg/mL | MBIC ([2]; clinical strain 19 (Table S4)): 15.6 µg/mL | MBIC ([2]; clinical strain 21 (Table S4)): 31.25 µg/mL | MBIC ([2]; clinical strain 22 (Table S4)): 31.25 µg/mL | MBIC ([2]; clinical strain 23 (Table S4)): 3.9 µg/mL | MBIC ([2]; clinical strain 25 (Table S4, Figure 2)): 7.8 µg/mL | MBIC ([2]; clinical strain 26 (Table S4)): 31.25 µg/mL | MBIC ([2]; clinical strain 27 (Table S4)): 31.25 µg/mL | MBIC ([2]; clinical strain 28 (Table S4)): 15.6 µg/mL | MBIC ([2]; clinical strain 29 (Table S4)): 15.6 µg/mL | MBIC ([2]; clinical strain 30 (Table S4)): 1.6 µg/mL | MBIC ([2]; clinical strain 33 (Table S4)): 31.25 µg/mL | MBIC ([2]; clinical strain 35 (Table S4)): 31.25 µg/mL | MBIC ([2]; clinical strain 36 (Table S4)): 15.6 µg/mL | MBIC ([2]; clinical strain 37 (Table S4)): 31.25 µg/mL | MBIC ([2]; clinical strain 39 (Table S4)): 1.6 µg/mL | MBIC ([2]; clinical strain 40 (Table S4)): 15.6 µg/mL | MBIC ([2]; clinical strain 41 (Table S4)): 31.25 µg/mL | MBIC ([2]; clinical strain 42 (Table S4)): 31.25 µg/mL | MBIC ([2]; clinical strain 43 (Table S4)): 15.6 µg/mL | MBIC ([2]; clinical strain 44 (Table S4)): 15.6 µg/mL | MBIC ([2]; clinical strain 45 (Table S4)): 31.25 µg/mL | MBIC ([2]; clinical strain 46 (Table S4)): 31.25 µg/mL | MBIC ([2]; clinical strain 47 (Table S4)): 15.6 µg/mL | MBIC ([2]; clinical strain 49 (Table S4)): 15.6 µg/mL | MBIC ([2]; clinical strain 51 (Table S4)): 31.25 µg/mL | MBIC ([2]; clinical strain 55 (Table S4)): 31.25 µg/mL | MBIC ([2]; clinical strain 58 (Table S4)): 31.25 µg/mL | MBIC ([2]; clinical strain 59 (Table S4)): 31.25 µg/mL | MBIC ([2]; clinical strain 65 (Table S4)): 31.25 µg/mL | MBIC ([2]; clinical strain 66 (Table S4)): 15.6 µg/mL | MBIC ([2]; clinical strain 67 (Table S4)): 31.25 µg/mL | MBIC ([2]; clinical strain 70 (Table S4)): 31.25 µg/mL | MBIC ([2]; clinical strain 73 (Table S4)): 7.8 µg/mL | MBIC ([2]; clinical strain 74 (Table S4)): 15.6 µg/mL | MBIC ([2]; clinical strain 75 (Table S4)): 15.6 µg/mL | MBIC ([2]; clinical strain 78 (Table S4)): 7.8 µg/mL | MBIC ([2]; clinical strain 79 (Table S4)): 7.8 µg/mL | MBEC [3, 4]: 7.8 µg/mL | MBEC50 ([3]; Table S4 strains): 31.25 µg/mL | MBEC90 ([3]; Table S4 strains): 31.25 µg/mL | MBEC ([3]; clinical strain 1 (Table S4)): 31.25 µg/mL | MBEC ([3]; clinical strain 2 (Table S4)): 31.25 µg/mL | MBEC ([3]; clinical strain 3 (Table S4)): 31.25 µg/mL | MBEC ([3]; clinical strain 4 (Table S4)): 31.25 µg/mL | MBEC ([3]; clinical strain 6 (Table S4)): 15.6 µg/mL | MBEC ([3]; clinical strain 7 (Table S4)): 31.25 µg/mL | MBEC ([3]; clinical strain 8 (Table S4)): 7.8 µg/mL | MBEC ([3]; clinical strain 9 (Table S4)): 31.25 µg/mL | MBEC ([3]; clinical strain 11 (Table S4)): 31.25 µg/mL | MBEC ([3]; clinical strain 12 (Table S4)): 31.25 µg/mL | MBEC ([3]; clinical strain 13 (Table S4)): 3.9 µg/mL | MBEC ([3]; clinical strain 15 (Table S4)): 31.25 µg/mL | MBEC ([3]; clinical strain 16 (Table S4)): 31.25 µg/mL | MBEC ([3]; clinical strain 17 (Table S4)): 15.6 µg/mL | MBEC ([3]; clinical strain 19 (Table S4)): 15.6 µg/mL | MBEC ([3]; clinical strain 21 (Table S4)): 31.25 µg/mL | MBEC ([3]; clinical strain 22 (Table S4)): 31.25 µg/mL | MBEC ([3]; clinical strain 23 (Table S4)): 7.8 µg/mL | MBEC ([3]; clinical strain 25 (Table S4)): 7.8 µg/mL | MBEC ([3]; clinical strain 26 (Table S4)): 31.25 µg/mL | MBEC ([3]; clinical strain 27 (Table S4)): 31.25 µg/mL | MBEC ([3]; clinical strain 28 (Table S4)): 31.25 µg/mL | MBEC ([3]; clinical strain 29 (Table S4)): 31.25 µg/mL | MBEC ([3]; clinical strain 30 (Table S4)): 3.9 µg/mL | MBEC ([3]; clinical strain 33 (Table S4)): 31.25 µg/mL | MBEC ([3]; clinical strain 35 (Table S4)): 31.25 µg/mL | MBEC ([3]; clinical strain 36 (Table S4)): 31.25 µg/mL | MBEC ([3]; clinical strain 37 (Table S4)): 31.25 µg/mL | MBEC ([3]; clinical strain 39 (Table S4)): 3.9 µg/mL | MBEC ([3]; clinical strain 40 (Table S4)): 31.25 µg/mL | MBEC ([3]; clinical strain 41 (Table S4)): 31.25 µg/mL | MBEC ([3]; clinical strain 42 (Table S4)): 31.25 µg/mL | MBEC ([3]; clinical strain 43 (Table S4)): 31.25 µg/mL | MBEC ([3]; clinical strain 44 (Table S4)): 15.6 µg/mL | MBEC ([3]; clinical strain 45 (Table S4)): 31.25 µg/mL | MBEC ([3]; clinical strain 46 (Table S4)): 31.25 µg/mL | MBEC ([3]; clinical strain 47 (Table S4)): 15.6 µg/mL | MBEC ([3]; clinical strain 49 (Table S4)): 15.6 µg/mL | MBEC ([3]; clinical strain 51 (Table S4)): 31.25 µg/mL | MBEC ([3]; clinical strain 55 (Table S4)): 31.25 µg/mL | MBEC ([3]; clinical strain 58 (Table S4)): 31.25 µg/mL | MBEC ([3]; clinical strain 59 (Table S4)): 31.25 µg/mL | MBEC ([3]; clinical strain 65 (Table S4)): 31.25 µg/mL | MBEC ([3]; clinical strain 66 (Table S4)): 15.6 µg/mL | MBEC ([3]; clinical strain 67 (Table S4)): 31.25 µg/mL | MBEC ([3]; clinical strain 70 (Table S4)): 31.25 µg/mL | MBEC ([3]; clinical strain 73 (Table S4)): 7.8 µg/mL | MBEC ([3]; clinical strain 74 (Table S4)): 15.6 µg/mL | MBEC ([3]; clinical strain 75 (Table S4)): 31.25 µg/mL | MBEC ([3]; clinical strain 78 (Table S4)): 7.8 µg/mL | MBEC ([3]; clinical strain 79 (Table S4)): 7.8 µg/mL
